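The compound was tested at five concentrations on cells cultured in 96-well plates, with a 48-hour exposure period. GI50: concentration for 50% inhibition of growth. Definition used: TGI = concentration required for complete inhibition of growth.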

Common to all, as to test: inhibition of tumour cell growth, NCI panel, 48 h
Experiment [1] deals with A498 renal.
Experiment [2] deals with A549 NSCLC.
For experiment [3], the system named is DU-145 prostate.
Experiment [4] deals with HCC-2998 colon.
For experiment [5], the system named is HCT-15 colon.
In experiment [6] the test system is KM12 colon.
The test system of experiment [7] is M14 melanoma.
Experiment [8] deals with SK-MEL-2 melanoma.
The subject of experiment [9] is SNB-75 CNS.
Experiment [10] concerns U251 CNS.

As to `O=C(/C=C/OC(=O)c1cccc(Cl)c1)c1ccc(Cl)cc1`, the GI50 was more than 40.3 µM in experiment [1]; more than 100 µM in [2]; 44 µM in [3]; 29.3 µM in experiment [4]; 50.7 µM in [5]; more than 74.6 µM in [6]. Besides, the GI50 is 34.6 µM in experiment [7], more than 73.1 µM in experiment [8], 17.3 µM in experiment [9] and 38.1 µM in experiment [10]. Moreover, the TGI in experiment [1] is 96.9 µM; in experiment [2] it was more than 100 µM; in experiment [3], more than 100 µM; in experiment [4] it was more than 100 µM; in experiment [5], more than 100 µM; in experiment [6], more than 100 µM. Also, the TGI in [7] is more than 100 µM; in experiment [8], more than 100 µM; in [9] it was 73.5 µM; in experiment [10], more than 100 µM.

Take `CCn1ccc(NS(=O)(=O)c2ccc(N)cc2)nc1=O`: the GI50 in experiment [1], in [2], in experiment [3], in experiment [4], in experiment [5] and in [6] was more than 100 µM each time. For the same compound, the GI50 in experiment [7], in [8], in [9] and in experiment [10] was more than 100 µM in each case. Moreover, the TGI in [1], in [2], in experiment [3], in [4], in [5] and in [6] was more than 100 µM in each case. For the same compound, the TGI in experiment [7], in experiment [8], in [9] and in experiment [10] was more than 100 µM in each case.

`CN(C)c1ccc2nc(CC(O)(C(F)(F)F)C(F)(F)F)ccc2c1`: the TGI in [1], in experiment [2], in experiment [3], in [4], in experiment [5] and in [6] was more than 10 µM throughout. Besides, the TGI in [7], in experiment [8], in experiment [9] and in experiment [10] was more than 10 µM each time.

Take `COc1cnc2c(c1)C(=O)c1c-2n(CCCN2CCNCC2)c(=O)c2cc([N+](=O)[O-])ccc12`: the GI50 is 0.0863 µM in experiment [1]; 0.0699 µM in experiment [2]; 0.278 µM in [3]; 1.11 µM in [4]; 0.194 µM in experiment [5]; 0.38 µM in [6]. Further, the GI50 in [7] is 0.279 µM; in experiment [8], 2.07 µM; in experiment [9], 0.429 µM; in [10], 0.167 µM. For the same compound, the TGI in [1] turned out to be 2.19 µM; in experiment [2] it was 1.5 µM; in experiment [3] it was 1.23 µM; in experiment [4] it was 2.36 µM; in experiment [5], 1.54 µM; in [6] it was 1.77 µM. For the same compound, the TGI in [7] was 1.49 µM; in experiment [8] it was 3.95 µM; in experiment [9], 1.97 µM; in experiment [10] it was 1.16 µM.

For the compound `Nc1ccc(Sc2c3ccccc3nc3ccccc23)cc1`, the TGI in experiment [1] was more than 100 µM; in experiment [2], more than 100 µM; in experiment [3], 28.7 µM; in experiment [4], 59.5 µM; in experiment [5], 36.7 µM; in experiment [6], 40.4 µM. For the same compound, the TGI in experiment [7] came out at 30.1 µM; in experiment [8], 34.1 µM; in experiment [9] it was 36.2 µM; in experiment [10], 28 µM.

For the compound `CN(C)CCNC(=O)NC[C@H]1CC[C@@H]2[C@H](O1)c1cc(C(F)(F)F)ccc1N[C@H]2c1ccccc1`, the GI50 in [1] was 0.196 µM; in [2], 0.175 µM; in [3] it was 0.253 µM; in experiment [4], 0.275 µM; in experiment [5] it was 1.02 µM; in experiment [6], 0.296 µM. Further, the GI50 in experiment [7] was 0.041 µM; in experiment [8], 0.15 µM; in experiment [9], 0.32 µM; in experiment [10], 0.0537 µM. The TGI in experiment [1] amounted to 10.5 µM; in [2] it was 17.4 µM; in experiment [3], 0.792 µM; in experiment [4], 18.6 µM; in [5] it was 16.5 µM; in experiment [6], 14.6 µM. Besides, the TGI in experiment [7] was found to be 0.684 µM; in [8], 2.32 µM; in experiment [9] it was 23.4 µM; in [10], 1.69 µM.

Regarding `C=CCc1c(O)c(C(=O)/C=C/c2ccccc2)c(OC)c2ccoc12`, the GI50 in experiment [1] was 1.74 µM; in [2], 4.41 µM; in [3], 4.92 µM; in [4], 1.73 µM; in experiment [5], 2.91 µM; in [6], 4.06 µM. In addition, the GI50 in experiment [7] was 5.36 µM; in [8], 3.04 µM; in [9], 1.39 µM; in experiment [10], 2.36 µM. The TGI in experiment [1] turned out to be 9.4 µM; in experiment [2] it was 22.1 µM; in [3], 18.1 µM; in experiment [4], 3.21 µM; in experiment [5], 11.8 µM; in experiment [6] it was 13.6 µM. Moreover, the TGI was 22.9 µM in [7], 13.8 µM in experiment [8], 6.76 µM in [9] and 7.46 µM in experiment [10].

With `O=C1C2C3C=CC(C2C(=O)N1CN1CCSCC1)C1C2C(=O)N(CN4CCSCC4)C(=O)C2C31` (stereo unspecified), the TGI in experiment [1] was more than 100 µM; in [2], more than 100 µM; in [4] it was more than 100 µM; in experiment [5], more than 59.7 µM; in experiment [6], more than 100 µM; in [7], more than 100 µM. In addition, the TGI is more than 100 µM in experiment [8], more than 93 µM in experiment [9] and more than 100 µM in [10]. In addition, the GI50 is 77.1 µM in experiment [2], 78.4 µM in experiment [3] and 38.6 µM in [9].

`CN(C)c1ccc(N=C2C=CC(=O)c3ccccc32)cc1`: the GI50 was 12 µM in experiment [1]; 1.82 µM in experiment [2]; 1.74 µM in experiment [3]; 5.05 µM in [4]; 2.36 µM in experiment [5]; 2.69 µM in experiment [6]. Besides, the GI50 in experiment [7] is 1.79 µM; in [8], 3.5 µM; in experiment [9], 1.8 µM; in [10] it was 2.47 µM. The TGI is 25.2 µM in [1]; 3.89 µM in experiment [2]; 3.13 µM in [3]; 16.7 µM in [4]; 17.7 µM in experiment [5]; 10.2 µM in experiment [6]. In addition, the TGI in experiment [7] amounted to 3.61 µM; in [8], 11 µM; in [9], 4.86 µM; in experiment [10], 7.9 µM.

On to `Cc1nccc2c3ccc(OCc4cn(-c5ccc(Cl)cc5)nn4)cc3n(CC(C)C)c12`, for which the GI50 was 1.39 µM in experiment [1]; 2.29 µM in experiment [2]; 11.5 µM in experiment [3]; 3.68 µM in [4]; 1.28 µM in experiment [5]; 2.69 µM in experiment [6]. In addition, the GI50 in [7] was 1.61 µM; in experiment [8], 5.59 µM; in experiment [9], 5.09 µM; in experiment [10], 2.62 µM. Also, the TGI was 9.32 µM in experiment [1]; 13 µM in experiment [2]; more than 33.3 µM in experiment [3]; more than 33.3 µM in experiment [4]; 21.5 µM in experiment [5]; 16.8 µM in experiment [6]. The TGI in experiment [7] stood at 13.9 µM; in experiment [8], 22.5 µM; in [9], 14.4 µM; in experiment [10], 13.3 µM.

Take `CCCN1CCC(c2ccc(Nc3nc(Nc4cc(F)ccc4C(N)=O)c4cc[nH]c4n3)c(OC)c2)CC1`: the GI50 is 1.17 µM in experiment [1]; 0.154 µM in [2]; 1.02 µM in experiment [3]; 2.53 µM in experiment [4]; 0.54 µM in experiment [5]; 2.88 µM in experiment [6]. The GI50 in [7] is 1.58 µM; in experiment [8], 1.86 µM; in experiment [9], 4 µM; in experiment [10], 0.509 µM. Also, the TGI stood at 5.07 µM in experiment [1]; 4.68 µM in [2]; 4.92 µM in [3]; 5.5 µM in experiment [4]; 15.1 µM in [5]; 6.12 µM in [6]. The TGI in experiment [7] turned out to be 5.48 µM; in experiment [8], 5.78 µM; in experiment [9], 7.55 µM; in experiment [10] it was 1.97 µM.

`C#Cc1cccc(NC(=O)c2ccc(NC(=O)CCl)cc2)c1`: the GI50 in experiment [1] was more than 82.5 µM; in experiment [2] it was more than 82.5 µM; in experiment [3] it was more than 82.5 µM; in experiment [4], more than 82.5 µM; in [5], 9.95 µM; in experiment [6], 47 µM. The GI50 is 22.2 µM in experiment [7], 69.8 µM in [8], 17.2 µM in experiment [9] and 14.9 µM in [10]. Besides, the TGI in [1] is more than 82.5 µM; in experiment [2], more than 82.5 µM; in [3], more than 82.5 µM; in experiment [4], more than 82.5 µM; in experiment [5], 25 µM; in [6], more than 82.5 µM. The TGI was more than 82.5 µM in experiment [7], more than 82.5 µM in [8], more than 82.5 µM in experiment [9] and 34.8 µM in experiment [10].

As to `O=C(O[C@H]1CCN2C[C@H]3C[C@H](CN4C(=O)CCC[C@H]34)[C@@H]2C1)c1ccc(O)cc1`, the TGI in [1], in [2], in [3], in experiment [4], in experiment [5] and in [6] was more than 100 µM throughout. The TGI in experiment [7], in experiment [8], in experiment [9] and in experiment [10] was more than 100 µM throughout.

With `CN1CCN(Cc2ccc(NC(=O)c3cncc(C#Cc4cnc(N)c5cnccc45)c3)cc2C(F)(F)F)CC1`, the GI50 in experiment [1] is 0.12 µM; in experiment [2] it was 0.511 µM; in experiment [3] it was 0.214 µM; in experiment [4] it was 0.234 µM; in experiment [5], 0.721 µM; in experiment [6] it was 0.0169 µM. The GI50 in experiment [7] is 0.0727 µM; in [8], 0.108 µM; in [9], 0.233 µM; in experiment [10], 0.209 µM. The TGI in experiment [1] was found to be 0.363 µM; in [2] it was 7.79 µM; in experiment [3] it was 6.21 µM; in experiment [4], 7.12 µM; in [5] it was 6.31 µM; in experiment [6], 5.53 µM. Further, the TGI is 0.281 µM in [7], 0.283 µM in experiment [8], 1.71 µM in [9] and 7.62 µM in experiment [10].

As for `O=C(O)CCC(C(=O)O)N1C(=O)C2C3CCC(C3)C2C1=O` (stereo unspecified), the TGI in experiment [1], in [2], in experiment [3], in [5], in experiment [6] and in [7] was more than 100 µM throughout. Also, the TGI in experiment [8], in [9] and in [10] was more than 100 µM in each case.

As for `COc1ccc(/C=C2\c3cc(OC)c(OC)c(OC)c3CC[C@@H]2O)cc1F`, the GI50 is 0.152 µM in experiment [1]; 0.693 µM in experiment [2]; 0.322 µM in [3]; 0.809 µM in experiment [4]; 0.19 µM in [5]; 0.373 µM in [6]. Also, the GI50 was 0.274 µM in [7] and 0.469 µM in experiment [10]. The TGI is 0.697 µM in experiment [1]; more than 100 µM in experiment [2]; more than 100 µM in experiment [3]; 80.2 µM in experiment [4]; more than 100 µM in [5]; more than 100 µM in experiment [6]. Besides, the TGI in experiment [7] was more than 100 µM; in experiment [10], 33.2 µM.

For the compound `O=[N+]([O-])c1cc2c([N+](=O)[O-])cccc2o1`, the TGI in [1] is 43.5 µM; in experiment [2], more than 100 µM; in experiment [3], 42 µM; in experiment [4], 35.7 µM; in experiment [5], 23 µM; in experiment [6] it was 34.5 µM. The TGI in experiment [7] is 24.9 µM; in experiment [8], 25.4 µM; in [10] it was more than 100 µM.

The values above are taken from PubChem BioAssay (NCI).
